Our source for the IC50 values is patent US20240262842A1, “SMALL MOLECULE INHIBITORS OF KRAS G12C MUTANT” (Merck Sharp & Dohme LLC, priority 2021, published 2024).

pIC50: −log10 of the molar value.

For one assay, the target named is biotinylated KRAS G12C protein (GMP-PNP loaded) and GST-tagged Ras binding domain of c-RAF (Homo sapiens, UniProt P01116, C118S/C51S/C80L/G12C). In words: RAS:RAF-RBD binding assay (TR-FRET). Particulars: 30-minute incubation of compound with KRAS G12C before RAF-RBD; Table 4; read-out: IC50.
Chain of biotinylated KRAS G12C protein (GMP-PNP loaded) and GST-tagged Ras binding domain of c-RAF (P01116 with tags, fused parts or gaps isoform P01116-2 G12C/C51S/C80L/C118S): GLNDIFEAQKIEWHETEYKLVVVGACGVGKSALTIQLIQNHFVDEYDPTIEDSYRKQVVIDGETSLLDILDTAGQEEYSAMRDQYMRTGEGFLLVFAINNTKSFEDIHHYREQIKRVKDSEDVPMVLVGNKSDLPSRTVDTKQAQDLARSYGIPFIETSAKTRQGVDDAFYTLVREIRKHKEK
On to `Cc1nc2c3c(c(C(F)(F)F)cc2n1C)-c1cccn2c(C(=O)c4cc(F)c(NC(=O)/C(F)=C/CNCC5(CO)CC5)c(F)c4)cc(c12)CCO3` [Example 295, mono((Z)-2-(3,5-difluoro-4-(2-fluoro-4-(((1-(hydroxymethyl)cyclo-propyl)methyl)ammonio)-but-2-enamido)benzoyl)-9,10-dimethyl-7-(trifluoro-methyl)-13,14-dihydro-9H-imidazo[4″,5″:5′,6′]-benzo[1′,2′:2,3]oxocino-[4,5,6-hi]indolizin-11-ium) mono(2,2,2-trifluoro-acetate)], for which the negative-log IC50 (pIC50) is 7.60.

For `COCc1nc2c3c(c(OC)cc2n1C)-c1cccn2c(C(=O)c4cc(F)c(NC(=O)/C=C/CNC5CC6(COC6)C5)c(F)c4)cc(c12)CCN3C` [Example 291, (E)-4-((2-oxaspiro[3.3]-heptan-6-yl)amino)-N-(2,6-difluoro-4-(7-meth-oxy-10-(methoxymethyl)-9,12-dimethyl-9,12,13,14-tetrahydroimidazo[4″,5″: 5′,6′]benzo[1′,2′:2,3]-azocino[4,5,6-hi]indol-izine-2-carbonyl)phenyl) but-2-enamide], the pIC50 was 8.26.

For the compound `Cc1nc2c3c(c(C(F)(F)F)cc2n1C)-c1cccn2c(C(=O)c4cc(F)c(NC(=O)C(F)=CCN5CCCC5CO)c(F)c4)cc(c12)CCO3` [Example 294, mono(2-(3,5-difluoro-4-((Z)-2-fluoro-4-(2S)-2-(hydroxymethyl)pyrrol-idin-1-ium-1-yl)but-2-enamido)benzoyl)-9,10-dimethyl-7-(trifluorometh-yl)-13,14-dihydro-9H-imidazo[4″,5″:5′,6′]benzo-[1′,2′:2,3]oxocino[4,5,6-hi]indolizin-11-ium) mono(2,2,2-trifluoro-acetate)], the pIC50 was 7.22.

Turning to `Cc1nc2c3c(c(C(F)(F)F)cc2n1C)-c1cccn2c(C(=O)c4cc(F)c(NC(=O)/C=C/CNC5(C)CCOCC5)c(F)c4)cc(c12)CCO3` [Example 267, mono((E)-2-(3,5-difluoro-4-(4-((4-methyltetrahydro-2H-pyran-4-yl)ammonio)-but-2-enamido)benzoyl)-9,10-dimethyl-7-(trifluoro-methyl)-13,14-dihydro-9H-imidazo[4″,5″:5′,6′]-benzo[1′,2′:2,3]oxocino-[4,5,6-hi]indolizin-11-ium)mono(2,2,2-trifluoro-acetate)], the pIC50 was 8.43.

On to `COCc1nc2c3c(c(OC)cc2n1C)-c1cccn2c(C(=O)c4cc(F)c(NC(=O)/C=C/CN5CC[C@H](O)C5)c(F)c4)cc(c12)CCN3C` [Example 289, mono(2-(3,5-difluoro-4-((E)-4-((3S)-3-hydroxy-pyrrolidin-1-ium-1-yl)but-2-enamido)benzoyl)-7-methoxy-10-(methoxy-methyl)-9,12-dimethyl-9,12,13,14-tetrahydro-imidazo[4″,5″:5′,6′]benzo-[1′,2′:2,3]azocino[4,5,6-hi]indolizin-11-ium) mono(2,2,2-trifluoro-acetate)], for which the pIC50 is 7.16.

Turning to `CN1CCc2cc(C(=O)c3cc(F)c(NC(=O)/C=C/CNC4(C)COC4)c(F)c3)n3cccc(c23)-c2c(C(F)(F)F)cc3c(cnn3C)c21` [Example 283, (E)-N-(4-(9,12-dimethyl-7-(trifluoromethyl)-9,12,13,14-tetrahydroindolizino[8′,1′:4,5,6]azocino[2,3-e]indazole-2-carbonyl)-2,6-difluorophenyl)-4-((3-methyloxetan-3-yl)amino)but-2-enamide], the pIC50 is 7.19.

Consider `Cc1nc2c3c(c(C(F)(F)F)cc2n1C)-c1cccn2c(C(=O)c4cc(F)c(NC(=O)/C=C/CN[C@@H]5CCCC(F)(F)[C@@H]5O)c(F)c4)cc(c12)CCO3` [Example 274], for which the pIC50 is 7.69.

For the compound `COCc1nc2c3c(c(OC)cc2n1C)-c1cccn2c(C(=O)c4cc(F)c(NC(=O)/C=C/CNC(C)(C)C)c(F)c4)cc(c12)CCN3C` [Example 288, mono((E)-2-(4-(4-(tert-butylammonio)but-2-enamido)-3,5-difluoro-benzoyl)-7-methoxy-10-(methoxymethyl)-9,12-dimethyl-9,12,13,14-tetra-hydroimidazo[4″,5″:5′,6′]-benzo[1′,2′:2,3]azocino-[4,5,6-hi]indolizin-11-ium) mono-(2,2,2-trifluoroacetate)], the negative logarithm of the IC50 (pIC50) is 8.09.

Turning to `Cc1nc2c3c(c(C(F)(F)F)cc2n1C)-c1cccn2c(C(=O)c4cc(F)c(NC(=O)/C=C/[C@@H]5C[C@@H](F)CN5)c(F)c4)cc(c12)CCO3` [Example 260, (2S,4R)-2-((E)-3-((4-(9,10-dimethyl-7-(tri-fluoromethyl)-13,14-dihydro-9H-imidazo-[4″,5″:5′,6′]benzo[1′,2′: 2,3]oxocino[4,5,6-hi]-indolizine-2-carbonyl)-2,6-difluorophenyl)-amino)-3-oxoprop-1-en-1-yl)-4-fluoropyrrolidin-1-ium 2,2,2-trifluoro-acetate], the negative-log IC50 (pIC50) was 7.93.

As for `Cc1nc2c3c(c(C(F)(F)F)cc2n1C)-c1cccn2c(C(=O)c4cc(F)c(NC(=O)/C(F)=C/CNC5CC6(COC6)C5)c(F)c4)cc(c12)CCO3` [Example 297, (Z)-4-((2-oxaspiro[3.3]-heptan-6-yl)amino)-N-(4-(9,10-dimethyl-7-(trifluoromethyl)-13,14-dihydro-9H-imidazo-[4″,5″:5′,6′]benzo[1′,2′: 2,3]oxocino[4,5,6-hi]-indolizine-2-carbonyl)-2,6-difluorophenyl)-2-fluorobut-2-enamide], the pIC50 was 7.57.

As to `Cc1nc2c3c(c(OC(F)F)cc2n1C)-c1cccn2c(C(=O)c4cc(F)c(NC(=O)/C=C/CNC5(C)CC5)c(F)c4)cc(c12)CCN3C` [Example 300, (E)-N-(4-(7-(difluoromethoxy)-9,10,12-trimethyl-9,12,13,14-tetrahydroimidazo[4″,5″:5′,6′]benzo[1′,2′:2,3]azocino[4,5,6-hi]indolizine-2-carbonyl)-2,6-difluorophenyl)-4-((1-methylcyclopropyl)amino)but-2-enamide], the negative logarithm of the IC50 (pIC50) is 8.91.

For `Cc1nc2c3c(c(C(F)(F)F)cc2n1C)-c1cccn2c(C(=O)c4cc(F)c(NC(=O)/C=C/CNC5(C)COC5)c(F)c4)cc(c12)CC(C)O3` (single isomer, unassigned) [Example 273, mono((E)-2-(3,5-difluoro-4-(4-((3-methyloxetan-3-yl)ammonio)but-2-en-amido)benzoyl)-9,10,13-trimethyl-7-(trifluorometh-yl)-13,14-dihydro-9H-imidazo[4″,5″:5′,6′]benzo-[1′,2′:2,3]oxocino[4,5,6-hi]indolizin-11-ium) mono(2,2,2-trifluoro-acetate)], the pIC50 was 7.52.

`Cc1nc2c3c(c(C(F)(F)F)cc2n1C)-c1cccn2c(C(=O)c4cc(F)c(NC(=O)/C=C/CNC5(C)COC5)c(F)c4)cc(c12)CC(C)O3` (single isomer, unassigned) [Example 272, mono((E)-2-(3,5-difluoro-4-(4-((3-methyloxetan-3-yl)ammonio)but-2-en-amido)benzoyl)-9,10,13-trimethyl-7-(trifluoro-methyl)-13,14-dihydro-9H-imidazo[4″,5″:5′,6′]-benzo[1′,2′:2,3]oxocino-[4,5,6-hi]indolizin-11-ium) mono(2,2,2-trifluoroacetate)]: the pIC50 was 7.83.

As for `Cc1nc2c3c(c(C(F)(F)F)cc2n1C)-c1cccn2c(C(=O)c4cc(F)c(NC(=O)/C=C/C5CCCN5)c(F)c4)cc(c12)CCO3` (single isomer, unassigned) [Example 251, (E)-N-(4-(9,10-dimethyl-7-(trifluoromethyl)-13,14-dihydro-9H-imidazo-[4″,5″:5′,6′]benzo[1′,2′: 2,3]oxocino[4,5,6-hi]-indolizine-2-carbonyl)-2,6-difluorophenyl)-3-(pyrrolidin-2-yl)acryl-amide], the pIC50 was 7.78.

Regarding `CO[C@@H]1CCCC[C@@H]1NC/C=C/C(=O)Nc1c(F)cc(C(=O)c2cc3c4c(cccn24)-c2c(C(F)(F)F)cc4c(nc(C)n4C)c2OCC3)cc1F` [Example 266, (E)-N-(4-(9,10-dimethyl-7-(trifluoromethyl)-13,14-dihydro-9H-imidazo-[4″,5″:5′,6′]benzo[1′,2′: 2,3]oxocino[4,5,6-hi]-indolizine-2-carbonyl)-2,6-difluorophenyl)-4-(((1S,2R)-2-methoxy-cyclohexyl)amino)but-2-enamide], the pIC50 is 7.79.

With `Cc1nc2c3c(c(C(F)(F)F)cc2n1C)-c1cccn2c(C(=O)c4cc(F)c(NC(=O)/C=C/C5CCCN5)c(F)c4)cc(c12)CCO3` (single isomer, unassigned) [Example 250, (E)-N-(4-(9,10-dimethyl-7-(trifluoromethyl)-13,14-dihydro-9H-imidazo-[4″,5″:5′,6′]benzo[1′,2′: 2,3]oxocino[4,5,6-hi]-dolizine-2-carbonyl)-2,6-difluorophenyl)-3-(pyrrol-idin-2-yl)acrylamide], the pIC50 was 7.26.

Take `COCc1nc2c3c(c(OC)cc2n1C)-c1cccn2c(C(=O)c4cc(F)c(NC(=O)/C=C/CNC(C)(C)C5CC5)c(F)c4)cc(c12)CCN3C` [Example 290, mono((E)-2-(4-(4-((2-cyclopropylpropan-2-yl)-ammonio)but-2-enamido)-3,5-difluorobenzoyl)-7-methoxy-10-(methoxy-methyl)-9,12-dimethyl-9,12,13,14-tetrahydro-imidazo[4″,5″:5′,6′]benzo-[1′,2′:2,3]azocino[4,5,6-hi]indolizin-11-ium) mono(2,2,2-trifluoro-acetate)]: the pIC50 is 7.95.

The assay is the same for the next values; noted with them: IC50, 30-minute incubation of compound with KRAS G12C before RAF-RBD; Table 4.
Turning to `CO[C@H]1CC[C@H](NC/C=C/C(=O)Nc2ccc(C(=O)c3cn4c5c(cccc35)-c3c(C(F)(F)F)cc5c(nc(C)n5C)c3OCC4)cc2)CC1` [Example 263, mono(2-(4-((E)-4-(((1r, 4r)-4-methoxycyclohexyl)-ammonio)but-2-enamido)-benzoyl)-8,9-dimethyl-6-(trifluoromethyl)-12,13-dihydro-8H-imidazo-[4″,5″:3′,4′]benzo[1′,2′: 7,8][1,4]oxazocino[6,5,4-hi]indol-10-ium) mono-(2,2,2-trifluoroacetate)], the pIC50 is 8.03.
